Measurements reported in the NIST ThermoML archive (doi:10.1007/s10765-005-8089-2).

Test: xn = mol fraction of the nth substance listed
Conditions: Liquid, Falling or rolling sphere viscometry

Cc1ccccc1 [toluene] + CCO
viscosity [mPa·s]
Conditions | x2 = 0.125 | x2 = 0.25 | x2 = 0.375 | x2 = 0.5 | x2 = 0.625 | x2 = 0.75 | x2 = 0.875
293.15 K, 100 kPa | 0.588 | 0.609 | 0.652 | 0.71 | 0.79 | 0.899 | 1.023
293.15 K, 20000 kPa | 0.68 | 0.71 | 0.754 | 0.815 | 0.909 | 1.014 | 1.157
293.15 K, 40000 kPa | 0.781 | 0.816 | 0.866 | 0.931 | 1.034 | 1.152 | 1.306
293.15 K, 60000 kPa | 0.893 | 0.931 | 0.986 | 1.055 | 1.166 | 1.297 | 1.457
293.15 K, 80000 kPa | 1.016 | 1.054 | 1.114 | 1.187 | 1.302 | 1.444 | 1.604
293.15 K, 100000 kPa | 1.153 | 1.189 | 1.251 | 1.331 | 1.449 | 1.6 | 1.757
313.15 K, 100 kPa | 0.462 | 0.471 | 0.49 | 0.525 | 0.574 | 0.635 | 0.717
313.15 K, 20000 kPa | 0.538 | 0.549 | 0.573 | 0.611 | 0.662 | 0.729 | 0.825
313.15 K, 40000 kPa | 0.619 | 0.632 | 0.658 | 0.699 | 0.757 | 0.83 | 0.932
313.15 K, 60000 kPa | 0.705 | 0.718 | 0.747 | 0.792 | 0.854 | 0.933 | 1.039
313.15 K, 80000 kPa | 0.796 | 0.81 | 0.841 | 0.889 | 0.955 | 1.038 | 1.147
313.15 K, 100000 kPa | 0.893 | 0.907 | 0.94 | 0.991 | 1.058 | 1.145 | 1.255
333.15 K, 100 kPa | 0.37 | 0.373 | 0.385 | 0.405 | 0.431 | 0.468 | 0.523
333.15 K, 20000 kPa | 0.433 | 0.437 | 0.45 | 0.47 | 0.501 | 0.544 | 0.603
333.15 K, 40000 kPa | 0.499 | 0.503 | 0.518 | 0.54 | 0.573 | 0.621 | 0.684
333.15 K, 60000 kPa | 0.568 | 0.571 | 0.588 | 0.611 | 0.647 | 0.697 | 0.763
333.15 K, 80000 kPa | 0.639 | 0.643 | 0.662 | 0.686 | 0.724 | 0.776 | 0.844
333.15 K, 100000 kPa | 0.714 | 0.718 | 0.739 | 0.763 | 0.804 | 0.856 | 0.926
353.15 K, 100 kPa | 0.306 | – | – | – | – | – | –
353.15 K, 20000 kPa | 0.358 | 0.356 | 0.361 | 0.372 | 0.39 | 0.415 | 0.453
353.15 K, 40000 kPa | 0.412 | 0.411 | 0.417 | 0.427 | 0.446 | 0.476 | 0.516
353.15 K, 60000 kPa | 0.468 | 0.467 | 0.474 | 0.484 | 0.504 | 0.536 | 0.577
353.15 K, 80000 kPa | 0.526 | 0.525 | 0.532 | 0.541 | 0.564 | 0.597 | 0.64
353.15 K, 100000 kPa | 0.588 | 0.586 | 0.593 | 0.601 | 0.625 | 0.66 | 0.703
